For twelve compounds, TGI and GI50 results are on record in PubChem BioAssay (NCI).

Each structure is given as a SMILES string.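 All cell lines were grown in 96-well plates and treated with compound for 48 hours. Abbreviation: GI50, concentration required for 50% inhibition of growth. The concentration for full growth arrest is given as TGI.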 Where a SMILES comes first, the peptide text is derived from it. [ ]: non-standard residue; d: D form. The star is where a group is joined. Phe(4-NO2) = N[CH](Cc1ccc([N+](=O)[O-])cc1)C(=O)O; Boc = CC(C)(C)OC(=O)*; OBn = c1ccc(CO*)cc1 Where only a bound is given, the exact number is not on record here.

Test systems include HCC-2998 colon; SW-620 colon; EKVX NSCLC; SNB-75 CNS; COLO 205 colon; NCI/ADR-RES ovarian; HCT-116 colon; KM12 colon; A549 NSCLC; NCI-H226 lung.
What all share (experiment): inhibition of tumour cell growth, NCI panel, 48 h

Turning to `N#CC1=C2Sc3ccccc3N2[C@H](c2ccccc2)[C@H]2COC(=O)[C@@H]12`, the TGI is more than 100 µM in the assay on HCC-2998 colon; more than 100 µM in the assay with SW-620 colon; more than 100 µM in the assay with EKVX NSCLC; 97.1 µM with SNB-75 CNS; more than 100 µM with COLO 205 colon; more than 100 µM in the assay on NCI/ADR-RES ovarian. Also, the TGI in the assay on HCT-116 colon, in the assay on KM12 colon, in the assay on A549 NSCLC and with NCI-H226 lung was more than 100 µM each time.
As to `CC(=O)O[C@H]1CC[C@@]2(C)C(=CC[C@@H]3[C@@H]2CC[C@]2(C)C(c4cccnc4)=CC[C@@H]32)C1`, the GI50 in the assay on HCC-2998 colon is 14 µM; with SW-620 colon it was 5.81 µM; in the assay on EKVX NSCLC, 4.62 µM; in the assay on SNB-75 CNS, 2600 nM; with COLO 205 colon, 5.1 µM; in the assay on NCI/ADR-RES ovarian it was 3.99 µM. The GI50 is 4.49 µM with HCT-116 colon, 3.73 µM with KM12 colon, 10.4 µM in the assay with A549 NSCLC and 17.7 µM with NCI-H226 lung. Further, the TGI in the assay on HCC-2998 colon was more than 100 µM; in the assay on SW-620 colon it was more than 100 µM; in the assay on EKVX NSCLC, more than 100 µM; in the assay on SNB-75 CNS, 15.6 µM; in the assay with COLO 205 colon it was more than 100 µM; in the assay with NCI/ADR-RES ovarian, 34.2 µM. The TGI in the assay on HCT-116 colon, in the assay with KM12 colon, with A549 NSCLC and with NCI-H226 lung was more than 100 µM in each case.
With `CCOC(=O)/C(O)=C1\C(=O)N(C)C(=O)C1c1ccc(OC)c(OC)c1` (stereo not given), the TGI in the assay on HCC-2998 colon is more than 100 µM; with SW-620 colon, more than 31.6 µM; in the assay on EKVX NSCLC, more than 100 µM; in the assay with SNB-75 CNS, more than 100 µM; in the assay with COLO 205 colon, more than 100 µM; in the assay on NCI/ADR-RES ovarian, more than 100 µM. The TGI in the assay with HCT-116 colon, in the assay on KM12 colon, with A549 NSCLC and in the assay on NCI-H226 lung was more than 100 µM throughout.
Regarding `O=C1C(Br)=CC2([N+](=O)[O-])CCNc3c(O)c4c5c(c3C2=C1Br)=NCCC=5C=N4` (stereo not given), the TGI with HCC-2998 colon was determined as 13.2 µM; with SW-620 colon, 4 µM; in the assay with EKVX NSCLC, 7.43 µM; in the assay on SNB-75 CNS, 20.5 µM; with COLO 205 colon it was 0.133 µM; in the assay on NCI/ADR-RES ovarian, 6.52 µM. Further, the TGI with HCT-116 colon turned out to be 1.09 µM; in the assay with KM12 colon, 14.8 µM; in the assay on A549 NSCLC, 16.3 µM; in the assay on NCI-H226 lung, 6.79 µM.
As to `COC(=O)CCC(NC(=O)OC(C)(C)C)C(=O)NC(Cc1ccc([N+](=O)[O-])cc1)C(=O)NCC(=O)OCc1ccccc1` (stereo not given) (Boc-Glu(OMe)-[Phe(4-NO2)]-Gly-OBn; configuration not given here), the TGI is more than 100 µM in the assay with HCC-2998 colon; more than 100 µM in the assay with SW-620 colon; more than 100 µM in the assay with EKVX NSCLC; 48.4 µM in the assay with SNB-75 CNS; more than 100 µM in the assay on COLO 205 colon; more than 100 µM in the assay on NCI/ADR-RES ovarian. In addition, the TGI with HCT-116 colon, in the assay with KM12 colon, in the assay with A549 NSCLC and with NCI-H226 lung was more than 100 µM each time.
As for `CCN1CC(C)Cn2c(=O)[nH]c3cc(Br)cc1c32` (stereo not given), the TGI with HCC-2998 colon was more than 100 µM; with SW-620 colon, more than 100 µM; in the assay on EKVX NSCLC, 52 µM; in the assay on SNB-75 CNS, 48.3 µM; in the assay on COLO 205 colon, more than 100 µM; in the assay on NCI/ADR-RES ovarian it was more than 100 µM. In addition, the TGI in the assay with HCT-116 colon, in the assay on KM12 colon, with A549 NSCLC and with NCI-H226 lung was more than 100 µM in each case.
Consider `COc1ccc2c3c1OC1CC(O)C=CC31CCN(C)C2` (stereo not given), for which the TGI in the assay on HCC-2998 colon, in the assay on SW-620 colon, in the assay on EKVX NSCLC, in the assay with SNB-75 CNS, in the assay with COLO 205 colon and in the assay with NCI/ADR-RES ovarian was more than 150 µM in each case. The TGI in the assay on HCT-116 colon, in the assay with KM12 colon, with A549 NSCLC and in the assay with NCI-H226 lung was more than 150 µM in each case.
For the compound `Oc1ccc(Cl)cc1C1=N/C(=N\CN2CCN(C/N=C3/N=C(c4cc(Cl)ccc4O)CC(c4ccccc4)N3)CC2)NC(c2ccccc2)C1` (stereo not given), the TGI in the assay with HCC-2998 colon is more than 100 µM; in the assay with SW-620 colon, more than 100 µM; in the assay with EKVX NSCLC, more than 100 µM; in the assay with SNB-75 CNS, 96.8 µM; in the assay on COLO 205 colon, more than 100 µM; in the assay on NCI/ADR-RES ovarian it was more than 100 µM. For the same compound, the TGI is 46.3 µM in the assay with HCT-116 colon, more than 100 µM in the assay on KM12 colon, more than 100 µM in the assay with A549 NSCLC and more than 100 µM in the assay on NCI-H226 lung.
On to `COC1C(O)CC(OC2C(C)OC(Oc3cc(O)c4c(O)c5c(cc4c3)C[C@@H]([C@H](OC)C(=O)[C@@H](O)[C@@H](C)O)[C@H](OC3CC(OC4CC(OC6CC(C)(O)C(O)C(C)O6)C(O)C(C)O4)C(O)C(C)O3)C5=O)CC2OC(C)=O)OC1C` (stereo not given in full), for which the TGI in the assay on HCC-2998 colon, in the assay on SW-620 colon, in the assay on EKVX NSCLC, in the assay with SNB-75 CNS, with COLO 205 colon and in the assay with NCI/ADR-RES ovarian was more than 100 µM throughout. Moreover, the TGI in the assay on HCT-116 colon, in the assay on KM12 colon, with A549 NSCLC and in the assay with NCI-H226 lung was more than 100 µM in each case.
Turning to `COc1ccc(CCn2cnc3ccccc32)cc1`, the TGI in the assay on HCC-2998 colon, in the assay with SW-620 colon, in the assay on EKVX NSCLC, with SNB-75 CNS, in the assay on COLO 205 colon and with NCI/ADR-RES ovarian was more than 100 µM each time. Besides, the TGI with HCT-116 colon, in the assay with KM12 colon, in the assay with A549 NSCLC and in the assay on NCI-H226 lung was more than 100 µM in each case.
Take `COc1cc2c3cc1Oc1c(O)c(OC)cc4c1[C@H](Cc1ccc(cc1)Oc1cc(ccc1O)C[C@H]3N(C)CC2)N(C)CC4`: the TGI in the assay with HCC-2998 colon is 22.8 µM; with SW-620 colon, 57.3 µM; with EKVX NSCLC, 48.1 µM; in the assay on SNB-75 CNS, 43 µM; in the assay on COLO 205 colon, 28.5 µM; in the assay with NCI/ADR-RES ovarian, 78.4 µM. In addition, the TGI came out at 22.4 µM in the assay with HCT-116 colon, 23.7 µM with KM12 colon, 39.6 µM with A549 NSCLC and 58.8 µM in the assay with NCI-H226 lung.
Regarding `O=C(Nc1ccccc1)O/N=C(/CBr)c1ccccc1`, the TGI in the assay on HCC-2998 colon is 36.6 µM; in the assay on SW-620 colon, more than 100 µM; with EKVX NSCLC, 35.1 µM; with SNB-75 CNS, 30.5 µM; in the assay on COLO 205 colon, 32.9 µM; in the assay with NCI/ADR-RES ovarian, more than 100 µM. Moreover, the TGI in the assay on HCT-116 colon was 20 µM; in the assay on KM12 colon, 44.2 µM; with A549 NSCLC, more than 100 µM; in the assay on NCI-H226 lung, 60.8 µM.
